According to patent US8859543B2, “Imidazo[1,2-a]pyrazine derivatives and their use for the prevention or treatment of neurological, psychiatric and metabolic disorders and diseases” (Janssen Pharmaceutica NV, priority 2010, dated 2014):
Like-named read-outs stand apart in the source and are kept apart here.

What was measured:
[1] = target: T1, Rat recombinant PDE10A (rPDE10A2) (Rattus norvegicus, UniProt Q9QYJ6); experiment: In vitro assay PDE10A (SPA, 3H-cAMP); format: biochemical; conditions: pIC50 corresponds to the -log IC50 expressed in mol/L; for IC50: read-out: PDE10A2 pIC50 (converted)
T1 construct: made in house; host or cells: Sf9 insect cells, baculovirus
T1 sequence (Q9QYJ6 1-794): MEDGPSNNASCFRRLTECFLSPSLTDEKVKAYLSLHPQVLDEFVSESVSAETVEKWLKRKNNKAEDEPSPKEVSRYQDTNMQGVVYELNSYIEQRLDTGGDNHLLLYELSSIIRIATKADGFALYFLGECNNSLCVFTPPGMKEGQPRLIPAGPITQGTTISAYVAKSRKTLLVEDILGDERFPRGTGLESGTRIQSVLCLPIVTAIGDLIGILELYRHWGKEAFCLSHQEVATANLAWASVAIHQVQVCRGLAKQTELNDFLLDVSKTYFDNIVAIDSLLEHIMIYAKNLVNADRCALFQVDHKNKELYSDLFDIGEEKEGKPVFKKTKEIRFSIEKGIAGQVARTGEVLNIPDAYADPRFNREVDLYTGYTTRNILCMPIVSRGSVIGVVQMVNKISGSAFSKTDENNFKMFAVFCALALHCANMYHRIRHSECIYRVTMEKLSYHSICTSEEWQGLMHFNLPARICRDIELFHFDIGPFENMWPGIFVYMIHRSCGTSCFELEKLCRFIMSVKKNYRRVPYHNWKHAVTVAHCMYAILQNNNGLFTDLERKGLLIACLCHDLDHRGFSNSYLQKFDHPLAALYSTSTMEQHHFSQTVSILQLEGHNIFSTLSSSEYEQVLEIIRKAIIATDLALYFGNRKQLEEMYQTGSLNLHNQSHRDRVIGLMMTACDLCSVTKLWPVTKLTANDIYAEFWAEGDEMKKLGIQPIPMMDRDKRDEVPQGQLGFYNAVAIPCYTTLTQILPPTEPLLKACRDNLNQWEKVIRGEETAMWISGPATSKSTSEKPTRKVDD
Description: Rat recombinant PDE10A (rPDE10A2) was expressed in Sf9 cells using a recombinant rPDE10A baculovirus construct. Cells were harvested after 48 h of infection and the rPDE10A protein was purified by metal chelate chromatography on Ni-sepharose 6FF. Tested compounds were dissolved and diluted in 100% DMSO to a concentration 100 fold of the final concentration in the assay. Compound dilutions (0.4 μl) were added in 384 well plates to 20 μl of incubation buffer (50 mM Tris pH 7.8, 8.3 mM MgCl2, 1.7 mM EGTA). 10 μl of rPDE10A enzyme in incubation buffer was added and the reaction was started by addition of 10 μl substrate to a final concentration of 60 nM cAMP and 0.008 μCi ^3H-cAMP. The reaction was incubated for 60 min. at RT. […] After sedimentation of the beads during 30 min. the radioactivity was measured in a Perkin Elmer Topcount scintillation counter and results were expressed as cpm. For blank values the enzyme was omitted from the reaction and replaced by incubation buffer. Control values were obtained by addition of a final concentration of 1% DMSO instead of compound. The same assay principle is applied for the measurement of the affinity of the compound for other members of the PDE family with appropriate modifications in incubation buffer, substrate concentration, incubation time and stop solution.

PDE10 = target: T2, PDE10 (Rattus norvegicus, UniProt Q9QYJ6); experiment: PDE10 occupancy ([3H]-MP-10, striatum); format: in vivo; conditions: for receptor occupancy at 10 mg/kg / ED50: rat; for receptor occupancy at 10 mg/kg: 1 h, read-out: % occ. printed under Occ. ED50 >10; for ED50: occupancy, read-out: Occ. ED50
T2 construct: from tissue; host or cells: rat brain sections, striatum (ex vivo autoradiography after in vivo dosing)
T2 sequence (Q9QYJ6 1-794): T1 sequence (Q9QYJ6 1-794)
Description: Dose-response or single dose experiments were performed to measure PDE10 occupancy 1 hour after subcutaneous (s.c.) or oral (p.o.) administration. Male Wistar rats (200 g) were treated by s.c. or p.o. administration of various PDE10 inhibitors. The PDE10 radioligand [^3H]-MP-10 (10 μCi/animal) was injected intravenously (i.v.) 30 minutes before sacrifice. Brains were immediately removed from the skull and rapidly frozen. Twenty μm-thick brain sections were cut using a cryostat-microtome, thaw-mounted on microscope slides and loaded in a β-imager to quantify PDE10 occupancy in the striatum.

[2] = test system: apomorphine-induced stereotypy; experiment: Apomorphine-induced stereotypy in rats (APO); format: in vivo; conditions: Rattus norvegicus
Description: Apomorphine-Induced Stereotypy in Rats (APO)
Apomorphine (1.0 mg/kg, i.v.)-induced stereotypy (compulsive sniffing, licking, chewing) was scored every 5 min. over the first hour after injection of apomorphine, following a 1 hour interval pre-treatment with the test compound. The score system was: (3) pronounced, (2) moderate, (1) slight, and (O) absent.

[3] = test system: PCP-induced hyperlocomotion; experiment: PCP-induced hyperlocomotion in rats (PCP); format: in vivo; conditions: Rattus norvegicus
[4] = po, * compound was not soluble and was tested orally as a suspension, read-out: APO ED50
[5] = not active at 2.5 or at 10 mg/kg, not further tested, read-out: APO ED50 (not active at threshold dose)

| % Occ. at 10 mg/kg (PDE10; administered s.c.) | Structure (SMILES) | IC50 [1] | ED50 ([2]; read-out: APO ED50) | also measured |
| --- | --- | --- | --- | --- |
| 41% | FC(F)(F)Cn1cc(-c2c(C3CC3)nc3c(N4CCOCC4)nccn23)cn1 [compound 46] | 25.1 nM | – | ED50 [2, 4]: 5 mg/kg |
| – | FC(F)(F)Cn1cc(-c2c(C3CC3)nc3c(-c4ccncc4)nccn23)cn1 [compound 45] | 20 nM | – | % Occ. at 10 mg/kg (PDE10; administered p.o. (a)): 53^a %; ED50 [2, 4]: 3.1 mg/kg |
| 11% | Cc1nc2c(N3CCOCC3)nccn2c1-c1ccnc(OC(C)C)c1 [compound 113] | 251 nM | – | ED50 [2, 5]: > 2.5 mg/kg |
| – | COCCc1ccc(-c2c(C(F)(F)F)nc3c(N4CCOCC4)nccn23)cn1 [compound 12, 3-[6-(2-Methoxy-ethyl)-pyridin-3-yl]-8-morpholin-4-yl-2-trifluoromethyl-imidazo[1,2-a]pyrazine] | – | ≤ 2.5 mg/kg | receptor occupancy at 10 mg/kg (PDE10; sc): 22%; ED50 (PDE10; sc, administered s.c.): > 10 mg/kg |
| 52% | COCCn1cc(-c2c(C)nc3c(-c4ccncc4)nccn23)cn1 [compound 34, 3-[1-(2-Methoxy-ethyl)-1H-pyrazol-4-yl]-2-methyl-8-pyridin-4-yl-imidazo[1,2-a]pyrazine] | 263 nM | – | ED50 [2, 4]: 1.2 mg/kg |
| – | Cc1nc2c(N3CCOCC3)nccn2c1-c1ccc(C2CC2)nc1 [compound 28, 3-(6-Cyclopropyl-pyridin-3-yl)-2-methyl-8-morpholin-4-yl-imidazo[1,2-a]pyrazine] | – | – | receptor occupancy at 10 mg/kg (PDE10; sc): 31%; ED50 (PDE10; sc, administered s.c.): > 10 mg/kg; ED50 [2, 4]: 1.2 mg/kg |
| – | COCCn1cc(-c2c(C)nc3c(-c4cccnc4)nccn23)cn1 [compound 135] | – | – | PDE10A2 pIC50 [1]: 6.25; receptor occupancy at 10 mg/kg (PDE10; po): 29%; ED50 (PDE10; po, administered p.o. (a)): > 10 mg/kg |
| – | COCCn1cc(-c2c(C3CC3)nc3c(N4CCOCC4)nccn23)cn1 [compound 53] | – | 5 mg/kg | PDE10A2 pIC50 [1]: 7.27; ED50 [3]: ≤ 40 mg/kg |
| – | Cc1nc2c(N3CCOCC3)nccn2c1-c1cnn(CC2CCCCO2)c1 (single isomer, unassigned) [compound 70] | 91.2 nM | 5 mg/kg | ED50 [3]: 3.2 mg/kg |
| – | COC(C)(C)CCc1ccc(-c2c(C)nc3c(N4CCOCC4)nccn23)cn1 [compound 29, 3-[6-(3-Methoxy-3-methyl-butyl)-pyridin-3-yl]-2-methyl-8-morpholin-4-yl-imidazo[1,2-a]pyrazine] | 219 nM | 1.2 mg/kg | – |
| – | COC(C)(C)c1ccc(-c2c(C)nc3c(N4CCOCC4)nccn23)cn1 [compound 30, 3-[6-(1-Methoxy-1-methyl-ethyl)-pyridin-3-yl]-2-methyl-8-morpholin-4-yl-imidazo[1,2-a]pyrazine] | 107 nM | 1.2 mg/kg | ED50 (PDE10; sc, administered s.c.): 3.4 mg/kg |
| 0% | COCCn1cc(-c2c(C(F)(F)F)nc3c(N4CCOCC4)nccn23)cn1 [compound 118] | – | – | PDE10A2 pIC50 [1]: 6.51; ED50 [2, 5]: > 2.5 mg/kg |
| – | Cc1nc2c(N3CCOCC3)nccn2c1-c1ccnc(N2CCOCC2)c1 [compound 91] | 135 nM | – | ED50 [2, 5]: > 2.5 mg/kg |
| – | Cc1nc2c(N3CCOCC3)nccn2c1-c1cnn(Cc2ccc3ccccc3n2)c1 [compound 112] | – | – | PDE10A2 pIC50 [1]: 6.63; ED50 [2, 5]: > 2.5 mg/kg |
| – | COCCCn1cc(-c2c(C)nc3c(-c4ccncc4)nccn23)cn1 [compound 102] | 166 nM | 5 mg/kg | – |
| 10% | COCCn1cc(-c2c(C)nc3c(N4CCCC4)nccn23)cn1 [compound 130] | – | – | PDE10A2 pIC50 [1]: 6.3; ED50 [2, 5]: > 2.5 mg/kg |
| – | Cc1nc2c(N3CCOCC3)nccn2c1-c1cnn(Cc2ccccn2)c1 [compound 76] | 102 nM | 3.1 mg/kg | – |
| – | COC[C@H](C)n1cc(-c2c(C)nc3c(-c4ccncc4)nccn23)cn1 [compound 79] | 107 nM | 5 mg/kg | – |
| – | COC(C)(C)COc1ccc(-c2c(C3CC3)nc3c(N4CCOCC4)nccn23)cn1 [compound 105] | 174 nM | – | ED50 [2, 5]: > 2.5 mg/kg |
| – | Cc1nc2c(-c3ccncc3)nccn2c1-c1ccc(N2CCOCC2)nc1 [compound 115] | 263 nM | 5 mg/kg | – |
| – | COCCc1ccc(-c2c(C)nc3c(-c4ccncc4)nccn23)cn1 [compound 8, 3-[6-(2-Methoxy-ethyl)-pyridin-3-yl]-2-methyl-8-pyridin-4-yl-imidazo[1,2-a]pyrazine] | – | 1.2 mg/kg | ED50 (PDE10; sc, administered s.c.): 2.6 mg/kg |
| 55% | Cc1nc2c(-c3ccncc3)nccn2c1-c1cnn(CC(F)(F)F)c1 [compound 67] | 85.1 nM | – | ED50 [2, 4]: 3.1 mg/kg |
| – | COC[C@@H](C)n1cc(-c2c(C)nc3c(N4CCOCC4)nccn23)cn1 [compound 110] | 214 nM | 3.1 mg/kg | – |
| – | Cc1nc2c(N3CCOCC3)nccn2c1-c1cnn(CC2CC2)c1 [compound 62] | 79.4 nM | – | ED50 [2, 5]: > 2.5 mg/kg |
| – | Cc1nc2c(N3CCOCC3)nccn2c1-c1cnn(Cc2ccccc2Cl)c1 [compound 94] | – | – | PDE10A2 pIC50 [1]: 6.86; ED50 [2, 5]: > 2.5 mg/kg |
| – | Cc1nc2c(N3CCOCC3)nccn2c1-c1cnn(CCF)c1 [compound 96] | 141 nM | 5 mg/kg | – |
| – | COCCc1ncc(-c2c(C)nc3c(N4CCOCC4)nccn23)cc1F [compound 17, 3-[5-Fluoro-6-(2-methoxy-ethyl)-pyridin-3-yl]-2-methyl-8-morpholin-4-yl-imidazo[1,2-a]pyrazine] | 275 nM | – | ED50 [2, 5]: > 2.5 mg/kg |
| – | COCCc1ccc(-c2c(OC)nc3c(N4CCOCC4)nccn23)cn1 [compound 15, 2-Methoxy-3-[6-(2-methoxy-ethyl)-pyridin-3-yl]-8-morpholin-4-yl-imidazo[1,2-a]pyrazine] | – | 1.2 mg/kg | ED50 (PDE10; sc, administered s.c.): 1.5 mg/kg |

| Structure (SMILES) | % Occ. at 10 mg/kg (PDE10; administered s.c.) | IC50 [1] | ED50 ([2]; read-out: APO ED50) | also measured |
| --- | --- | --- | --- | --- |
| Cc1nc2c(N3CCOCC3)nccn2c1-c1cnc(CC(C)C)s1 [compound 42, 3-(2-Isobutyl-thiazol-5-yl)-2-methyl-8-morpholin-4-yl-imidazo[1,2-a]pyrazine] | 59% | – | 5 mg/kg | – |
| COCCn1cc(-c2c(C3CC3)nc3c(-c4ccncc4)nccn23)cn1 [compound 51] | 61% | 50.1 nM | 1.2 mg/kg | – |
| COC(C)(C)Cn1cc(-c2c(C3CC3)nc3c(-c4ccncc4)nccn23)cn1 [compound 50] | 72% | 47.9 nM | 5 mg/kg | – |
| COC(C)(C)Cn1cc(-c2c(C3CC3)nc3c(N4CCOCC4)nccn23)cn1 [compound 48] | 53% | 33.1 nM | 3.1 mg/kg | – |
| Cc1nc2c(N3CCOCC3)nccn2c1-c1ccc(N2CCOCC2)nc1 [compound 4, 2-Methyl-8-morpholin-4-yl-3-(6-morpholin-4-yl-pyridin-3-yl)-imidazo[1,2-a]pyrazine] | 28% | 141 nM | 3.1 mg/kg | – |
